Values joined by “and” are separate entries in the source; they are usually repeats but may differ in a detail not shown here. Equal values may be shown once.

This note sets out measurements from patent US6589961B2, “9-alkylamino-1-nitroacridine derivatives” (New York Medical College, priority 2000, dated 2003).

Common to all, as to format: in vivo
Test [1] relates to ascites adenocarcinoma Walker 256. Kind of test: Antitumor activity against ascites adenocarcinoma Walker 256 in rats (survival). Conditions: Wistar rats; for Optimal dose: dose giving the highest antitumor activity, i.p. on days 3, 4 and 5 after tumor transplantation, five doses tested; for Antitumor activity against Walker256 (Survival) Test/Control: mean survival time of test group vs control at the optimal dose, i.p. on days 3, 4 and 5. The procedure: Tumors are transplanted weekly into Wistar rats by intraperitoneal inoculation of 10^6 tumor cells. In the experiments, Walker carcinosarcoma 256 cells are transplanted on day 0 in Wistar rats weighing 75-100 g. by i.p. injection of 10^6 cells per animal. Each acridine is administered i.p. on days 3, 4, and 5 after tumor transplantation. Five rats are in each group at a given drug dose level and a group of 10 rats served as control for all test groups. […] Each acridine is tested at five different doses. The activity of the drug T/C (%) is expressed as % increase in mean survival time (in days) of test group (T) to the mean survival time (in days) of the control (C). Usually, the antitumor activity is presented only for the optimal dose (O.D. mg/kg/day) of tested compounds, at which the highest antitumor activity is observed.

In test [2] the test system is Dunning G cells. Briefly: Antitumor activity in Dunning G induced tumors in Copenhagen rats. Conditions: two weeks after treatment withdrawal. The method, then:
Four to five week old Copenhagen rats are purchased from Harlan Sprague Dawley, Indianapolis, Ind., and allowed to acclimate for one week, feeding on Purina 5001 rat chow. At the end of one week, the rats are randomized into different experimental groups. Body weights of the animals measured twice a week.
Live Dunning G cells (one million/rat) are injected subcutaneously in all animals to induce tumors. Dunning G cells are non-metastatic tumor producing prostate cancer cells derived from spontaneous tumors from Copenhagen rats. Dunning G and MAT-LyLu cells (Yedavelli et al, 1999, Int. J. Mol. Med. 4:243-248) are grown in RPMI 1640 containing 10% fetal bovine serum (FBS) supplemented with penicillin (50 IU/mL), streptomycin (50 μg/mL), 2 mM L-glutamine and 2.5 mM dexamethasone. Cells are fed twice a week and are trypsinized with 0.05% trypsin-EDTA at 70-80 percent cell confluency.
Animals are injected i.p twice a week with 9-(2′-hydroxyethylamino)-4-methyl-1-nitroacridine (0.8 or 1.0 mg/Kg body weight) 1-nitro-9-hydroxyethylaminoacridine (0.6 mg/Kg body weight) twice a week for three weeks. Injections are started on day 25 for animals injected with Dunning G cells when tumors are palpable (0.5 cm). All animals are housed in hanging cages with three/four animals per cage and had ad libitum access to food and drinking water and are kept on twelve hour diurnal cycle. All injections and tumor measurements are performed under light anesthesia (metofane inhalation). Experimental end point measurements include body weight, tumor incidence. The experiment is terminated when the tumor size in the control animals is 3 cms diameter. Sacrifice of the animals is done by carbon dioxide asphyxiation.
Stock solution of 9-(2′-hydroxyethylamino)-4-methyl-1-nitroacridine is made in dimethylsulfoxide at 0.16 mg/ml. All drugs for injection in animals are diluted in PBS such that the total volume injected is between 0.1 to 0.2 mL. Stock solution of 1-nitro-9-hydroxyethylaminoacridine is made in dimethylsulfoxide at 0.12 mg/ml.

In test [3] the test system is TSU cells. Kind of test: Antitumor activity on human prostate tumor (TSU) xenografts in nude mice. The settings on record: Balb c/nu/nu mice. The procedure:
Tumors are induced in six week old Balb c/nu/nu mice which are allowed to acclimate for two weeks by subcutaneous injection of 2×10^6 TSU cells per mouse. TSU cells are human prostate cancer cells (Iizumi et al., 1987, J. Urol. 137:1304-1306). TSU cells are grown in RPMI-1640 medium supplemented with 10% fetal bovine serum and the antibiotics penicillin (50 IU/ml), streptomycin (50 μg/ml) and 2 mM L-glutamine. Cells are fed with fresh media twice a week and are trypsinized using 0.05% trypsin-EDTA. Cells used for injection are always in the log phase of their growth (70-80%) confluent flask and cell viability is checked by trypan-blue exclusion test prior to injection. Only cells >95% […] are used.
Tumors are palpable in the mice by day 7 when treatment with the two drugs, mitoxantrone (0.6 mg/kg) and 9-(2′-hydroxyethylamino)-4-methyl-1-nitroacridine (0.8 mg/kg) is initiated. Treatment is continued twice weekly for three weeks. Mice are lightly anesthetized and tumors are measured and are weighed weekly. The stock concentrations of the drug are 0.12 mg/ml in PBS for mitoxantrone and 0.16 mg/ml in dimethylsulfoxide (DMSO) for 9-(2′-hydroxyethylamino)-4-methyl-1-nitroacridine. Mice are housed 5 animals/cage.
In general terms: In xenograft studies the graft and the host belong to different species.

In the case of “9-(4′-hydroxypropylamino)-7-methoxy-4-methyl-1-nitroacridine”, in test [1], the Optimal dose was 8 mg/kg and the “Antitumor activity against Walker256 (Survival) Test/Control” value is 183%.
Take `CC(=O)OCCNc1c2ccccc2nc2cccc([N+](=O)[O-])c12` [9-(2′-acetoxyethylamino)-1-nitroacridine]: in test [1], the Optimal dose was 1 mg/kg and the “Antitumor activity against Walker256 (Survival) Test/Control” value is listed as 167%.
`COc1ccc2nc3c(C)ccc([N+](=O)[O-])c3c(NCCOC(C)=O)c2c1` [9-(2′-acetoxyethylamino)-7-methoxy-4-methyl-1-nitroacridine]: in test [1], the Optimal dose is on record as 25 mg/kg and the “Antitumor activity against Walker256 (Survival) Test/Control” value is 133%.
As to `O=[N+]([O-])c1cccc2nc3ccccc3c(NCCO)c12` [1-nitro-9-hydroxyethylaminoacridine, reference compound], the reduction of tumors in test [2] (0.6 mg/Kg body weight i.p. twice a week for three weeks (FIG. 1 legend says 0.8 mg/Kg)) is given as 50%.
On to `COc1ccc2nc3c(C)ccc([N+](=O)[O-])c3c(NCCO)c2c1` [9-(2′-hydroxyethylamino)-7-methoxy-4-methyl-1-nitroacridine], for which, in test [1], the Optimal dose is 16 mg/kg and the “Antitumor activity against Walker256 (Survival) Test/Control” value worked out at 233%.
As to `CC(=O)OCCNc1c2ccccc2nc2c(C)ccc([N+](=O)[O-])c12` [9-(2′-acetoxyethylamino)-4-methyl-1-nitroacridine], in test [1], the Optimal dose turned out to be 8 mg/kg and the “Antitumor activity against Walker256 (Survival) Test/Control” value was 233%.
As to `Cc1ccc([N+](=O)[O-])c2c(NCCO)c3ccccc3nc12` [9-(2′-hydroxyethylamino)-4-methyl-1-nitroacridine], the “effect on tumors (FIG. 2)” value in test [3] (0.8 mg/kg twice weekly for three weeks from day 7, observation up to 11 weeks) is “reduction of the tumors until completely tumor free by five weeks and remained in force until 11 weeks”. Further, in test [1], the Optimal dose is given as 4 mg/kg and the “Antitumor activity against Walker256 (Survival) Test/Control” value was found to be 217%. Moreover, the reduction of tumors in test [2] (0.8 mg/kg i.p. twice a week for three weeks) is recorded as 65%. This compound also gave a reduction of tumors in test [2] (1.0 mg/kg i.p. twice a week for three weeks) of 75%.
`CCC(=O)OC(C)CNc1c2ccccc2nc2c(C)ccc([N+](=O)[O-])c12` (stereo not drawn) [9-(2′-propionoxypropylamino)-4-methyl-1-nitroacridine]: in test [1], the Optimal dose was determined as 8 mg/kg and the “Antitumor activity against Walker256 (Survival) Test/Control” value was found to be 257%.
For `CCCCOCCNc1c2ccccc2nc2c(C)ccc([N+](=O)[O-])c12` [9-(2′-butyloxyethylamino)-4-methyl-1-nitroacridine], in test [1], the Optimal dose was 8 mg/kg and the “Antitumor activity against Walker256 (Survival) Test/Control” value turned out to be 217%.
For `COc1ccc([N+](=O)[O-])c2c(NCCCO)c3ccccc3nc12` [9-(3′-hydroxypropylamino)-4-methoxy-1-nitroacridine], in test [1], the Optimal dose is on record as 2 mg/kg and the “Antitumor activity against Walker256 (Survival) Test/Control” value is listed as 157%.
For the compound `COc1ccc2nc3cccc([N+](=O)[O-])c3c(NCCCO)c2c1` [9-(3′-hydroxypropylamino)-7-methoxy-1-nitroacridine], in test [1], the Optimal dose was 0.5 mg/kg; the “Antitumor activity against Walker256 (Survival) Test/Control” value was 182% and 229%.
As to `COc1ccc2nc3c(C)ccc([N+](=O)[O-])c3c(NCCCOC(C)=O)c2c1` [9-(3′-acetoxypropylamino)-7-methoxy-4-methyl-1-nitroacridine], in test [1], the Optimal dose was 16 mg/kg and the “Antitumor activity against Walker256 (Survival) Test/Control” value was 217%.
As for `COc1ccc2nc3c(C)ccc([N+](=O)[O-])c3c(NCCCO)c2c1` [9-(3′-hydroxypropylamino)-7-methoxy-4-methyl-1-nitroacridine], in test [1], the Optimal dose came to 16 mg/kg and the “Antitumor activity against Walker256 (Survival) Test/Control” value is 183%.
Consider `COc1ccc2nc3cccc([N+](=O)[O-])c3c(NCCO)c2c1` [9-(2′-hydroxyethylamino)-7-methoxy-1-nitroacridine], for which, in test [1], the Optimal dose came to 2 mg/kg; the “Antitumor activity against Walker256 (Survival) Test/Control” value was 150% and 200%.
Turning to `CCC(=O)OCCNc1c2ccccc2nc2c(C)ccc([N+](=O)[O-])c12` [9-(2′-propionoxyethylamino)-4-methyl-1-nitroacridine], in test [1], the Optimal dose was 8 mg/kg and the “Antitumor activity against Walker256 (Survival) Test/Control” value is recorded as 214%.
For `COc1ccc([N+](=O)[O-])c2c(NCCCCO)c3ccccc3nc12` [9-(4′-hydroxybutylamino)-4-methoxy-1-nitroacridine], in test [1], the Optimal dose was 32 mg/kg and the “Antitumor activity against Walker256 (Survival) Test/Control” value turned out to be 200%.
For `COc1ccc([N+](=O)[O-])c2c(NCCO)c3ccccc3nc12` [9-(2′-hydroxyethylamino)-4-methoxy-1-nitroacridine] the same measures were 16 mg/kg and 200%.
For `CC(=O)OCCCNc1c2ccccc2nc2c(C)ccc([N+](=O)[O-])c12` [9-(3′-acetoxypropylamino)-4-methyl-1-nitroacridine], in test [1], the Optimal dose was determined as 8 mg/kg and the “Antitumor activity against Walker256 (Survival) Test/Control” value is listed as 157%.
As for `CCC(=O)OCCNc1c2ccccc2nc2cccc([N+](=O)[O-])c12` [9-(2′-propionoxyethylamino)-1-nitroacridine], in test [1], the Optimal dose stood at 1 mg/kg and the “Antitumor activity against Walker256 (Survival) Test/Control” value worked out at 200%.
In the case of `Cc1ccc([N+](=O)[O-])c2c(NCCCO)c3ccccc3nc12` [9-(3′-hydroxypropylamino)-4-methyl-1-nitroacridine], in test [1], the Optimal dose stood at 2 mg/kg and the “Antitumor activity against Walker256 (Survival) Test/Control” value is given as 233%.
`COc1ccc2nc3cccc([N+](=O)[O-])c3c(NCCCCO)c2c1` [9-(4′-hydroxybutylamino)-7-methoxy-1-nitroacridine]: in test [1], the Optimal dose was determined as 2 mg/kg and the “Antitumor activity against Walker256 (Survival) Test/Control” value is 157%.
On to `O=C1c2c(O)ccc(O)c2C(=O)c2c(NCCNCCO)ccc(NCCNCCO)c21` [mitoxantrone, reference compound], for which, in test [3] (0.6 mg/kg twice weekly for three weeks from day 7), the “effect on tumors (FIG. 2)” value was “showed a reduction till three weeks and the tumors started growing eight weeks after withdrawal of therapy”.
